The record followed here is ChEMBL document CHEMBL1137009, “Inhibition of sphingosine-1-phosphate lyase for the treatment of autoimmune disorders” (J Med Chem, 2009).

Data set [1] is described as follows: Permeability across human Caco-2 cell membrane at 20 uM. Particulars: read-out: permeability. It counts as ADME, cell-based. In general terms: Caco-2 cells form a polarised layer with tight junctions and transporters.
A further data set deals with Mus musculus. Nature of the data set: Induction of lymphopenia in 129/SvEvBrd x C57BL/6 hybrid mouse assessed as change in circulating lymphocyte level at 100 mg/kg, po administered as single dose after 18 hrs by complete blood count analysis relative to control. In kind it is functional.
The nature of data set [2]: AUC (0 to infinity) in 129/SvEvBrd x C57BL/6 hybrid mouse at 10 mg/kg, po. Further details: time infinity, dose 10 mg/kg, route oral. It counts as ADME, organism-based, Plasma. Particulars: 129/SvEvBrd x C57BL/6 hybrid, plasma.
Data set [3] in a line: Half life in 129/SvEvBrd x C57BL/6 hybrid mouse. It counts as ADME, organism-based. Particulars: in vivo.
Data set [4] in a line: Clearance in 129/SvEvBrd x C57BL/6 hybrid mouse at 1 mg/kg, iv. In kind it is ADME, organism-based. Also on record: dose 1 mg/kg, route intravenous. Particulars: in vivo.
Data set [5] can be described thus: Oral bioavailability in 129/SvEvBrd x C57BL/6 hybrid mouse at 1 mg/kg, iv and 10 mg/kg, po. In kind it is ADME, organism-based. Particulars: 129/SvEvBrd x C57BL/6 hybrid, in vivo.

Structures are written as SMILES.

Regarding `Cc1scnc1-c1nc([C@@H](O)[C@H](O)[C@H](O)CO)c[nH]1`, the Papp at 20 µM in data set [1] was 4.9 ×10⁻⁶ cm/s. In the data set on Mus musculus, the Activity is -7%.

Usually AUC(0-inf) stands for total exposure, with the tail of the curve extrapolated. A low value points to less exposure. For orientation: half-life means the time in which the quantity being followed falls by half. Read a low half-life as rapid decline. The term clearance denotes a measure of how efficiently the substance is removed, as volume per time. A high value points to efficient removal. As a reminder, the bioavailability is dose-corrected exposure relative to a reference, in per cent. A lower bioavailability goes with poor availability. `OC[C@@H](O)[C@@H](O)[C@H](O)c1c[nH]c(-c2ncccn2)n1`: the area under the curve AUC(0-inf) in data set [2] amounted to 3 µM·h. In addition, the half-life in data set [3] was 2.4 h. Also, the clearance in data set [4] was found to be 15.2 mL/min/kg. The Papp at 20 µM in data set [1] was 10.9 ×10⁻⁶ cm/s. Besides, the Activity with Mus musculus was -26%. Besides, the bioavailability in data set [5] turned out to be 7%.

For `CC(=O)c1nc([C@@H](O)[C@H](O)[C@H](O)CO)cn1C`, in data set [2], the AUC(0-inf) came to 41.1 µM·h. Also, the half-life in data set [3] was 2.4 h. In data set [4], this compound came in with a clearance of 5.7 mL/min/kg. Further, the Papp at 20 µM in data set [1] is 5.57 ×10⁻⁶ cm/s. Besides, the Activity in the data set with Mus musculus worked out at 10%. The bioavailability in data set [5] is 33.6%.

In turn, `CC(=O)c1nc([C@@H](O)[C@H](O)[C@H](O)CO)c(-c2ccccc2)[nH]1` showed a total exposure AUC(0-inf) in data set [2] of 11.5 µM·h. Also, in data set [3], the half-life was 1.9 h. Also, the clearance in data set [4] was 23.9 mL/min/kg. Besides, in data set [1], the Papp at 20 µM stood at 3.11 ×10⁻⁶ cm/s. In addition, in the data set with Mus musculus, the Activity is recorded as 40%. In data set [5], the bioavailability worked out at 49.6%.

As to `OC[C@@H](O)[C@@H](O)[C@H](O)c1c[nH]c(-c2cscn2)n1`, the AUC(0-inf) in data set [2] amounted to 5.8 µM·h. Besides, the half-life in data set [3] was 4.2 h. The same compound displayed a clearance in data set [4] of 12.7 mL/min/kg. Further, the Activity with Mus musculus is -33%. In data set [5], this compound showed a bioavailability of 12%.

With `CC(=O)c1nc([C@@H](O)[C@@H](O)[C@H](O)CO)c[nH]1`, in data set [2], the area under the curve AUC(0-inf) stood at 15.7 µM·h. The compound also had a half-life in data set [3] of 5.4 h. The compound further displayed a clearance in data set [4] of 18.8 mL/min/kg. Moreover, the Papp at 20 µM in data set [1] was 9.9 ×10⁻⁶ cm/s. The Activity in the data set on Mus musculus is listed as -31%. Further, the bioavailability in data set [5] was 25%.

`CC(=O)c1cccc([C@@H](O)[C@H](O)[C@H](O)CO)n1` had an area under the curve AUC(0-inf) in data set [2] of 43.4 µM·h. Further, the half-life in data set [3] was 2.1 h. The compound also displayed a clearance in data set [4] of 14 mL/min/kg. Moreover, the Papp at 20 µM in data set [1] came to 13.4 ×10⁻⁶ cm/s. Besides, the Activity with Mus musculus came out at 45%. The compound further displayed a bioavailability in data set [5] of 88%.

Consider `CO[C@H](c1c[nH]c(C(C)=O)n1)[C@H](O)[C@H](O)CO`, for which the total exposure AUC(0-inf) in data set [2] came out at 42.7 µM·h. The half-life in data set [3] is 3.3 h. This compound yielded a clearance in data set [4] of 6.8 mL/min/kg. For the same compound, the Activity in the data set on Mus musculus was found to be 16%. The same compound registered a bioavailability in data set [5] of 42%.

With `OC[C@@H](O)[C@@H](O)[C@H](O)c1c[nH]c(-c2ncc[nH]2)n1`, the AUC(0-inf) in data set [2] amounted to 5.9 µM·h. In data set [3], the half-life was 3.2 h. This compound also yielded a clearance in data set [4] of 31.5 mL/min/kg. Also, in data set [1], the Papp at 20 µM is 25.9 ×10⁻⁶ cm/s. For the same compound, in the data set on Mus musculus, the Activity is listed as -53%. Also, the bioavailability in data set [5] is 28%.

Regarding `CC(=O)c1nc([C@@H](O)[C@H](O)[C@H](O)C(=O)N(C)C)c[nH]1`, in data set [2], the AUC(0-inf) is 0.2 µM·h. The compound further had a half-life in data set [3] of 3.5 h. Further, in data set [4], the clearance was 11.7 mL/min/kg. For the same compound, the Papp at 20 µM in data set [1] worked out at 10.3 ×10⁻⁶ cm/s. The Activity in the data set with Mus musculus is -15%. The compound also came in with a bioavailability in data set [5] of 1%.

With `Cc1nc(-c2nc([C@@H](O)[C@H](O)[C@H](O)CO)c[nH]2)cs1`, in data set [2], the AUC(0-inf) stood at 6.9 µM·h. Further, in data set [3], the half-life was 2.1 h. Also, the clearance in data set [4] amounted to 19.4 mL/min/kg. Further, the Papp at 20 µM in data set [1] worked out at 19.9 ×10⁻⁶ cm/s. Also, the Activity with Mus musculus amounted to 0%. The same compound displayed a bioavailability in data set [5] of 23%.

The compound `CC(=O)c1nc([C@@H](O)[C@H](O)[C@H](O)CO)c(C)[nH]1` registered an AUC(0-inf) in data set [2] of 10.8 µM·h. Besides, in data set [3], the half-life is 6.2 h. This compound also returned a clearance in data set [4] of 7 mL/min/kg. In data set [1], the Papp at 20 µM turned out to be 9.37 ×10⁻⁶ cm/s. Also, the Activity with Mus musculus is -5%. For the same compound, in data set [5], the bioavailability was found to be 11%.

As for `OC[C@@H](O)[C@@H](O)[C@H](O)c1c[nH]c(-c2nc[nH]n2)n1`, in data set [1], the Papp at 20 µM amounted to 1 ×10⁻⁶ cm/s. In the data set on Mus musculus, the Activity is on record as 7%.

`OC[C@@H](O)[C@@H](O)[C@H](O)c1c[nH]c(-c2cocn2)n1` displayed a total exposure AUC(0-inf) in data set [2] of 3.4 µM·h. In data set [3], this compound showed a half-life of 1.2 h. In data set [4], the clearance stood at 16.6 mL/min/kg. Further, the Papp at 20 µM in data set [1] amounted to 0.9 ×10⁻⁶ cm/s. In the data set on Mus musculus, the Activity is reported as 1%.
